Measured values as given in patent US11427588B2, “Compositions and methods for treating neurodegenerative diseases and cardiomyopathy” (THE REGENTS OF THE UNIVERSITY OF CALIFORNIA, priority 2013, dated 2022).

Tests used:
HeLa cells = experiment: Parkin recruitment to depolarized mitochondria in HeLa cells, PINK1 form not stated; type: cell-based
Experimental: Parkin phosphorylation and mitochondrial translocation assay: HeLa cells were grown in DMEM supplemented with 10% FBS. Log phase cells were plated in 24 well plates with glass coverslips (Mattek) pretreated with fibronectin. Cells were pretreated with 50 μM of the indicated compound, followed by transfection with MitoGFP, mCherry Parkin, and full length PINK1FLAG3 in a 1:4:2 ratio using Fugene 6 (Promega). Fields of cells were selected by expression of MitoGFP (6 fields/well-3 wells/condition) and imaged at five-minute intervals following depolarization with 5 μM CCCP. Quantification was performed according to published protocols^3 and by creation of a Matlab based script.
Our ability to enhance PINK1 activity in-vitro using KTP led us to investigate means by which to achieve enhanced activity in cells expressing PINK1. […] We treated cells with either kinetin or adenine (FIG. 2A) and measured Parkin localization following mitochondrial depolarization with CCCP (FIG. 2B). HeLa cells, which have low levels of endogenous PINK1 and PARKIN, were transfected with wildtype or PINK1^G309D, mCherryParkin, and mitoGFP. After 48 hours of incubation with 25 μM adenine, kinetin or equivalent DMSO, we imaged CCCP-mediated depolarization of mitochondria (FIGS. 2C, 2D) and calculated the percentage of GFP labelled mitochondria with mCherryParkin associated (FIG. 2E). […]

[1] = test system: SH-SY5Y cells with PINK1-silencing shRNA; experiment: H2O2 induced apoptosis, Annexin V / PI FACS assay, PINK1-silencing shRNA; type: cell-based, human; conditions: PINK1-silencing shRNA lentivirus; 50 μM 96 hours, 400 μM H2O2
Experimental: Apoptosis assays and PINK1 shRNA: SH-SY5Y cells (ATCC) were cultured in 1:1 mix of F12K and DMEM supplemented with 20% FBS. PINK1 shRNA lentivirus were produced using a pLKO.1 based shRNA (Sigma) by contransfection with Δ8.9 and pMGD2 vectors in HEK293T cells. SH-SY5Y cells were infected with lentivirus followed by selection with puromycin ([…]). The indicated cells were plated in 6-well plates at about 500,000 cells/well, pretreated with 50 μM of the indicated drug or DMSO for 96 hours followed by 400 μM H2O2 treatment. Subsequently, cells were stained with Annexin V-FITC and PI and analyzed (FACS Diva) on a FACS LSRII Cytometer ([…]) Apoptosis was calculated as the difference between H2O2 treated samples and the respective control.
Overexpression of PINK1 in neuronal cells (e.g. dopaminergic (DA)) promotes survival in response to oxidative stress and other mitochondrial toxins^7. Before testing the effects of kinetin on apoptosis, we treated DA neurons with 50 μM of either kinetin or adenine and measured cell density after 10 days. […] SH-SY5Y cells were treated with 50 μM kinetin, adenine or DMSO for 96 hours, followed by 400 μM H2O2 treatment for additional 24 hours. Using a cytometry-based FACS assay involving cellular annexin V and propidium iodide staining, we determined the percentage of apoptotic cells after treatment with DMSO, adenine or kinetin.

PINK1wt mice = experiment: Heart health and performance in mice treated from birth; type: in vivo
Experimental: PINK1 expression is protective in several mouse models of heart failure. PINK1wt expression will block pathological hypertrophy, increase heart fractional shortening, and prevent ischemia induced death of heart tissue. To assay the effect of kinetin PINK1 wt or PINK1−/− mice were treated with vehicle, adenine or kinetin from birth following published protocols for administration of kinetin (Hims et al., 2007; Shetty et al., 2011). The mice were sacrificed and whole hearts analyzed, and isolated cardiomyocytes from mice at appropriate time periods (e.g. 2 and 6 months). O2 consumption, mitochondrial integrity (mtDNA abundance, mitochondrial capacity and JC-1 fluorescence) caspase 3/7 cleavage activity and TUNEL staining were measured to assess the health of these tissues. According to published results (Billia et al., 2011; Chen and Dorn, 2013), PINK1 activity is essential for normal 02 consumption and maintenance of mitochondrial integrity. Decreased 02 consumption and mitochondrial integrity in PINK1−/− mice was compared to PINK1wt mice. […] Additionally, caspase 3/7 cleavage activity and TUNEL staining of the left ventricle were increased in PINK1−/− mice derived cardiomyocytes compared to PINK1wt.
In addition to these analyses we analyzed the performance of the heart in whole animals. We utilized the same procedure as above and treated either PINK1wt or PINK1−/− mice with vehicle, adenine or kinetin from birth following published protocols for administration of kinetin (Hims et al., 2007; Shetty et al., 2011). […] These characteristics of pathological hypertrophy indicate heart failure in the PINK1−/− mice will not increase as dramatically in PINK1wt mice (Billia et al., 2011). […] These experiments indicate that amplification of PINK1 activity by treatment with kinetin can block age-induced loss in heart function.

c1coc(CNc2ncnc3[nH]cnc23)c1 [kinetin]
Parkin recruitment to CCCP depolarized mitochondria (HeLa cells): accelerates
total amount of apoptotic cells [1]: no kinetin effect
age induced pathological hypertrophy (PINK1wt mice; HBW ratio, cross sectional area, extracellular matrix): reduces this age induced pathological hypertrophy
fractional shortening (PINK1wt mice; six month old, echocardiography): still higher fractional shortening
O2 consumption and mitochondrial integrity (PINK1wt mice; treated from birth): Improved values
TUNEL staining of the left ventricle (PINK1wt mice; treated from birth): further reduced TUNEL staining
